Results published in patent publication US5714467A, “Antibacterial and antimalarial hybrid peptides” (The Rockefeller University, priority 1993, dated 1998).
Where no end group is shown, it is not given here.

Experiments:
[1] = system: Bacillus megaterium BM11; assay: inhibition zone assay, lethal concentration; type: cell-based; settings: Table 2, footnote c: incubation overnight at 37° C.
Method: (§1) The products of the invention were tested for activity against a variety of test organisms selected to represent a number of different types of pathogens some of them known to be particularly virulent by the inhibition zone assay of Hoffmann et al (1981) Insect Biochem. 11 537-548 which is incorporated herein by reference. Thin agar or agarose plates (8.5 cm diameter) were prepared with 6 ml of rich medium containing 100 ug/ml of streptomycin and 2×10^5 viable cells of a test organism resistant to streptomycin. Wells of […] diameter were punched in the plates and 3 ul of serially diluted samples were placed in the wells. The diameters of the zones of inhibition around the wells were measured after overnight incubation at 30° or 37° C. For each peptide the squares of the zone diameters were plotted against the logarithm of the concentration, and from the slopes and intercepts the lethal concentrations were calculated as described by Hultmark (1983) EMBO J. 2, 571-76 or Hultmark et al (1982) Eur. J. Biochem. 127 207-217 each of which being incorporated herein by reference.
(§2) It was observed during testing that basic peptides often bind to agar plates, but not so much to agarose. Therefore those lethal concentrations determined on agar may, in fact, be substantially higher than the actual lethal concentrations.

[2] = system: Micrococcus luteus Ml11; assay: inhibition zone assay, lethal concentration; type: cell-based; settings: Table 2, footnote c: incubation overnight at 37° C.
Method: as §1, §2

[3] = system: Escherichia coli D22; assay: inhibition zone assay, lethal concentration; type: cell-based; settings: Table 2, footnote c: incubation overnight at 37° C.
Method: as §1, §2

[4] = system: Escherichia coli D21; assay: inhibition zone assay, lethal concentration; type: cell-based; settings: for Lethal concentration, D21 = E. coli: Table 3, agarose plates, overnight incubation at 30° C.
Method: as §1, §2
(§3) Novel peptides CA(1-8)M(1-18), CA(1-9)M(1-17), CB(1-13)M(1-13), CA(1-17)M(1-9), CA(1-18)M(1-8), M(1-13)CA(1-22) and M(1-13)CA(1-13) were prepared as described above (see Examples 1-6). These novel peptides and CA, CB, and M were tested for activity against a variety of organisms selected to represent a number of different types of pathogens, some of them known to be particularly virulent by the inhibition zone assay of Hoffmann et al (1981), Insect Biochem. 11 537-48. As in Examples 1-6, thin agarose plates were prepared with the respective organisms. The diameters of the zones of inhibition were measured after overnight incubation at 30° C. The lethal concentrations were determined as described above (see Examples 1-6; Hultmark et al articles cited thereat).

[5] = system: Bacillus subtilis Bs11; assay: inhibition zone assay, lethal concentration; type: cell-based; settings: for Lethal concentration, Bacillus subtilis Bs11 (Medium E): Table 2, Medium E; for Lethal concentration, Bs11 = B. subtilis: Table 3, agarose plates; for Lethal concentration, Bs11 = B. subtilis / Lethal concentration, Bs11 + ME = B. subtilis, plates prepared with medium E: overnight incubation at 30° C.; for Lethal concentration, Bs11 + ME = B. subtilis, plates prepared with medium E: Table 3, medium E, agarose plates
Method: as §1, §2, §3

[6] = system: Pseudomonas aeruginosa OT97; assay: inhibition zone assay, lethal concentration; type: cell-based; settings: for Lethal concentration, OT97 = P. aeruginosa: Table 3, agarose plates, overnight incubation at 30° C.
Method: as §1, §2, §3

[7] = system: Plasmodium falciparium strain F32 (Tanzania), blood stream forms; assay: inhibition of reinvasion of human red cells by malaria parasite; type: cell-based, Plasmodium falciparum; settings: for antimalarial potency in words: FIG. 1, blood stream form of Plasmodium falciparium; for IC50: Table 4, P. falciparum, read-out: 50% Reinvasion Inhibition
Method: Hybrid peptides CA(1-13)M(1-13) and CA(1-8)M(1-18) were prepared as described above (see Examples 1-6) and were assayed for activity against the blood stream form of Plasmodium falciparium. For comparison the test included cecropins A and B and the frog skin peptides magainin 2 and PGLa.
The blood stream forms of the malaria parasite Plasmodium falciparium, primarily late trophozoites and early schizonts, were assayed by recording the inhibition of the reinvasion of human red cells by the method of Wahlin, B., et al, (1984) Proc. Nat'l Acad. Sci. USA 81, 7912-16, incorporated herein by reference. Quadruplicate microcultures of strain F32 (Tanzania) were incubated for 20 hrs at 37° C. in a complete tissue culture medium, with or without different concentrations of the peptides to be assayed. After acridine orange staining, the percentage of newly infected red cells was scored in a fluorescence microscope. For each culture 40,000 red cells were analysed for parasitic infection. Duplicate assays were run for CA(1-13)M(1-13).

[8] = system: Staphylococcus haemolyticus; assay: inhibition zone assay, lethal concentration; type: cell-based; settings: Table 2, footnote c: incubation overnight at 37° C.
Method: as §1, §2

[9] = system: Saccharomyces cerevisiae; assay: inhibition zone assay, lethal concentration; type: cell-based; settings: Table 2, footnote c: incubation overnight at 37° C.
Method: as §1, §2

[10] = system: Xenorhabdus nematophilis Xn21; assay: inhibition zone assay, lethal concentration; type: cell-based; settings: Table 2, footnote c: incubation overnight at 37° C.
Method: as §1, §2

[11] = system: Candida albicans; assay: inhibition zone assay, lethal concentration; type: cell-based; settings: Table 2, footnote c: incubation overnight at 37° C.
Method: as §1, §2

[12] = system: Streptococcus pyogenes; assay: inhibition zone assay, lethal concentration; type: cell-based; settings: for Lethal concentration, Strep = S. pyogenes: Table 3, agarose plates, overnight incubation at 30° C.
Method: as §1, §2, §3

[13] = system: Staphylococcus aureus Cowan I; assay: inhibition zone assay, lethal concentration; type: cell-based; settings: for Lethal concentration, Staphylococcus aureus Cowan I: Table 2, footnote a: incubation overnight at 30° C. as well as at 37° C.; for Lethal concentration, Staph = S. aureus Cowan I: Table 3, agarose plates, overnight incubation at 30° C.
Method: as §1, §2, §3

[14] = system: Sheep Red Cells; assay: lysis of sheep red blood cells (lysis assay or SRC plate assay); type: cell-based; settings: for Lethal concentration, SRC = Sheep Red Cells: Table 3
Method: These values were obtained by either the lysis assay normally used for melittin or by an adaptation of the antibacterial inhibition zone assay of the above-cited Hultmark et al articles to plates with sheep red cells (SRC). With respect to the latter, sterile agarose plates contained 6 ml of medium With 1% agarose, 0.9% NaCl and 10% SRC suspended in Alsevers solution. A dilution series of peptide was applied in 3 mm wells each loaded with 3 μl of the respective samples. The plates were incubated at 30° C. for 24 h, the zones were recorded and LC values calculated as described in the Hultmark et al articles. Clear zones were recorded after a few hours of incubation and the use of such data gave an LC value of the same order as readings after 24 h. This plate assay is faster and more convenient than the lysis assay normally used for melittin.

[15] = Table 2, footnote c: incubation overnight at 37° C.
[16] = Table 2, footnote a: incubation overnight at 30° C. as well as at 37° C.
[17] = Table 2, footnote b: incubation overnight at 30° C.

Compound: WNPFKELEKVGQRVRDAVISAGPAVATVAQATALAK-NH2 [CD(2-37), Cecropin D]
- Lethal concentration, Bacillus megaterium BM11 [1]: 30 µM
- Lethal concentration, Micrococcus luteus Ml11 [2]: 12 µM
- Lethal concentration, Escherichia coli D22 [3]: 0.6 µM
- Lethal concentration, Escherichia coli D21 [4, 15]: 3.6 µM
- Lethal concentration, Bacillus subtilis Bs11 [5, 15]: 100 µM
- Lethal concentration, Pseudomonas aeruginosa OT97 [6, 15]: 90 µM

Compound: KWKLFKKIEKVGQNIRDGIIKAGPAVAVVGQATQIAK-NH2 [CA(1-37), Cecropin A]
- antimalarial potency in words [7]: negligible activity
- Lethal concentration, Staphylococcus haemolyticus [8]: 3 µM
- Lethal concentration, Saccharomyces cerevisiae [9]: 60 µM
- Lethal concentration, Bacillus megaterium BM11 [1]: 1 µM
- Lethal concentration, Micrococcus luteus Ml11 [2]: 1 µM
- Lethal concentration, Escherichia coli D22 [3]: 0.5 µM
- Lethal concentration, Xenorhabdus nematophilis Xn21 [10]: 2 µM
- Lethal concentration, Candida albicans [11]: > 200 µM
- Lethal concentration, Escherichia coli D21 [4, 16]: 0.2 µM
- Lethal concentration, D21 = E. coli [4]: 0.2 µM
- Lethal concentration, Streptococcus pyogenes [12, 17]: 4 µM
- Lethal concentration, Streptococcus pyogenes [12, 15]: 6 µM
- Lethal concentration, Strep = S. pyogenes [12]: 4 µM
- Lethal concentration, Staphylococcus aureus Cowan I [13]: > 200 µM
- Lethal concentration, Staph = S. aureus Cowan I [13]: 200 µM
- Lethal concentration, Bacillus subtilis Bs11 (Medium E) ([5]; footnote c: incubation overnight at 37° C.): 200 µM
- Lethal concentration, Bacillus subtilis Bs11 [5, 16]: 4 µM
- Lethal concentration, Bs11 = B. subtilis [5]: 4 µM
- Lethal concentration, Bs11 + ME = B. subtilis, plates prepared with medium E [5]: 200 µM
- Lethal concentration, Pseudomonas aeruginosa OT97 [6, 17]: 2 µM
- Lethal concentration, Pseudomonas aeruginosa OT97 [6, 15]: 1.6 µM
- Lethal concentration, OT97 = P. aeruginosa [6]: 2 µM
- Lethal concentration, Sheep Red Cells [14, 16]: > 200 µM
- Lethal concentration, SRC = Sheep Red Cells [14]: 200 µM

Compound: KWKVFKKIEKMGRNIRNGIVKAGPAIAVLGEAKAL-NH2 [CB(1-35), Cecropin B]
- antimalarial potency in words [7]: about as potent as Mag
- IC50 [7]: 110 µM
- Lethal concentration, D21 = E. coli [4]: 0.3 µM
- Lethal concentration, Strep = S. pyogenes [12]: 12 µM
- Lethal concentration, Staph = S. aureus Cowan I [13]: 200 µM
- Lethal concentration, OT97 = P. aeruginosa [6]: 1 µM

Compound: magainin 2
- IC50 [7]: 80 µM

Compound: CC[C@H](C)[C@H](NC(=O)CN)C(=O)NCC(=O)N[C@@H](C)C(=O)N[C@H](C(=O)N[C@@H](CC(C)C)C(=O)N[C@@H](CCCCN)C(=O)N[C@H](C(=O)N[C@@H](CC(C)C)C(=O)N[C@H](C(=O)N[C@H](C(=O)NCC(=O)N[C@@H](CC(C)C)C(=O)N1CCC[C@H]1C(=O)N[C@@H](C)C(=O)N[C@@H](CC(C)C)C(=O)N[C@H](C(=O)N[C@@H](CO)C(=O)N[C@@H](Cc1c[nH]c2ccccc12)C(=O)N[C@H](C(=O)N[C@@H](CCCCN)C(=O)N[C@@H](CCCNC(=N)N)C(=O)N[C@@H](CCCCN)C(=O)N[C@@H](CCCNC(=N)N)C(=O)N[C@@H](CCC(N)=O)C(=O)N[C@@H](CCC(N)=O)C(N)=O)[C@@H](C)CC)[C@@H](C)CC)[C@@H](C)O)[C@@H](C)O)C(C)C)C(C)C [M(1-26), Melittin]
- Lethal concentration, Staphylococcus haemolyticus [8]: 0.3 µM
- Lethal concentration, Saccharomyces cerevisiae [9]: 10 µM
- Lethal concentration, Xenorhabdus nematophilis Xn21 [10]: 9 to 50 µM
- Lethal concentration, Candida albicans [11]: 150 µM
- Lethal concentration, Escherichia coli D21 [4, 16]: 0.8 µM
- Lethal concentration, D21 = E. coli [4]: 0.8 µM
- Lethal concentration, Streptococcus pyogenes [12, 16]: 0.5 µM
- Lethal concentration, Strep = S. pyogenes [12]: 0.5 µM
- Lethal concentration, Staphylococcus aureus Cowan I [13]: 0.2 µM
- Lethal concentration, Staph = S. aureus Cowan I [13]: 0.2 µM
- Lethal concentration, Bacillus subtilis Bs11 (Medium E) ([5]; no incubation footnote): 0.3 µM
- Lethal concentration, Bacillus subtilis Bs11 [5, 16]: 0.2 µM
- Lethal concentration, Bs11 = B. subtilis [5]: 0.2 µM
- Lethal concentration, Bs11 + ME = B. subtilis, plates prepared with medium E [5]: 0.3 µM
- Lethal concentration, Pseudomonas aeruginosa OT97 [6, 16]: 3 µM
- Lethal concentration, OT97 = P. aeruginosa [6]: 3 µM
- Lethal concentration, Sheep Red Cells [14, 17]: 4 to 8 µM
- Lethal concentration, Sheep Red Cells [14, 15]: 4 to 6 µM
- Lethal concentration, SRC = Sheep Red Cells [14]: 4 to 8 µM

Compound: PGLa [PGL^a]
- antimalarial potency in words [7]: intermediate activity
- IC50 [7]: 40 µM

Compound: Cecropin P-1
- IC50 [7]: 90 µM
